Experiments:
[1] = tested on: PLK1; test: PLK1 position in the cell (r-tubulin, PLK1, DAPI staining); format: cell-based; settings: middle stage of cell division
[2] = tested on: human liver cancer PDX; test: Orthotopic xenograft model using human liver cancer PDX; format: in vivo, BalB/C nude mice; settings: M2 40 mg/kg i.p. once every two days, 11 treatments for 3 weeks
Description: A cancer tissue isolated from human liver cancer was transplanted into skin tissues of BalB/C nude mice and the skin tissues were grown into cancer tissues, so that a tissue established as a PDX model was used, uniformly cut into 1 mm^3, and transplanted into the right median lobe of the liver by excising the abdomen within 1 cm. Sm all spots were confirmed on the MRI image about 10 days after transplanting the liver cancer tissue into 20 BalB/C nude mice by the above method, so that rodents with well-established liver cancer were divided into 3 groups (see FIGS. 22A, 22B, and 22C), a solvent control (DMSO), a hit (M2) material at 40 mg/kg, and BI2536 at 4 mg/kg were injected into the abdominal cavity once every two days using less than 1.5% DMSO as a solvent (vehicle), and once a week, MRI images were used to select (follow up) rodents with constant tissue growth. Then, when the rapidly growing cancer tissue was 1 cm or less, the cancer tissue was observed after sacrificing the mice (11 treatments for 3 weeks).

[3] = tested on: HepG2 cells; test: Cell viability after treatment (Hoechst 33342); format: cell-based; settings: HepG2, various concentrations, two treatments 48 hours apart
Description: HepG2 cells, a hepatocellular carcinoma cell line, were plated with 4 to 6 replications at each hit compound concentration in a 96-well microtiter plate supplemented with a culture medium. The hit compound dissolved in DMSO was added the next day according to the design of experiments, and the number of seeded cells was determined by the cell density reaching 80% on the final day of the protocol treated as a cell control. After 24 hours of cell seeding, cells were treated with hit compounds (M2 and BI2536) at various concentrations, and 48 hours after primary treatment, the medium was aspirated and then secondary treatment was performed. After 48 hours, cell nuclei were visualized by 2.5 μM Hoechst 33342 staining at 37° C. for 30 minutes, then the medium was aspirated and washed with a fresh medium. The plate was read using Cytation™ 3 (BioTek, USA), the cell viability was analyzed, and the results were presented as a relative percentage of viable cells after treatment with the hit compound compared to the control treatment.

[4] = tested on: liver cancer cell lines; test: Mixed treatment of Compound 2 (M2) and BI2536; format: cell-based; settings: mixture of Compound 2 (M2) at a low concentration and BI2536

In the case of `Cn1c2nc(=O)[nH]c(=O)c-2nc2ccccc21` [Compound 2, 10-methyl-2H,3H,4H,10H-benzo[g]pteridine-2,4-dione], the “position of PLK1” value [1] is reported as “difficult for PLK1 to be located in a normal position”, the “r-tubulin located in the centrosome (staining / position)” value [1] is reported as “weakly stained” and the “volume of the cancer tissue” value [2] is reported as “reduced remarkably”. For the same compound, the “weight of the cancer tissue” value [2] was “reduced remarkably”, the cell viability [3] was “the relatively less the cell viability became” and the “inhibition of cancer cells by mixed treatment” value [4] was “the cooperative ability of BI2536 to inhibit cancer cells could be observed”.
